Assay results taken from patent US8835657B2, “Cyclopentanedione compounds and their use as insecticides, acaricides and/or fungicides” (Bayer CropScience AG, priority 2009, dated 2014).
Like-named read-outs stand apart in the source and are kept apart here.

How the values were obtained:
Type in all cases: in vivo
[1] = system: fall armyworm larvae (Spodoptera frugiperda); experiment: Spodoptera frugiperda test (SPODFR spray application); conditions: 168 h, spray on maize leaf sections, after 7 days, read-out: Efficacy % (mortality)
Source text: Test (SPODFR Spray Application)
(§1) • Solvent: 78.0 parts by weight acetone • 1.5 parts by weight dimethylformamide • Emulsifier: 0.5 parts by weight alkylarylpolyglycolether
To produce a suitable preparation of the active compound, 1 part by weight of active compound is mixed with the stated amount of solvent and emulsifier, and the concentrate is dilutes with emulsifier-containing water to the desired concentration. Maize (Zea mais) leaf sections are sprayed with a preparation of the active ingredient of the desired concentration. Once dry, the leaf sections are infested with fall armyworm larvae (Spodoptera frugiperda).
After 7 days mortality in % is determined. 100% means that all caterpillars have been killed and 0% means that none of the caterpillars have been killed.

[2] = system: green peach aphid (Myzus persicae); experiment: Myzus persicae test (MYZUPE spray application); conditions: foliar, 144 h, spray on Chinese cabbage leaf disks, after 6 days, read-out: Efficacy % (mortality)
Experimental: Test; (MYZUPE Spray Application)
as §1
(§2) To produce a suitable preparation of active compound, 1 part by weight of active compound is mixed with the stated amount of solvent and emulsifier, and the concentrate is diluted with emulsifier-containing water to the desired concentration. Chinese cabbage (Brassica pekinesis) leaf-disks infected with all instars of the green peach aphid (Myzus persicae), are sprayed with a preparation of the active ingredient at the desired concentration.
After 6 days mortality in % is determined. 100% means that all aphids have been killed; 0% means that none of the aphids have been killed.

[3] = system: two spotted spidermite (Tetranychus urticae); experiment: Tetranychus urticae test; OP-resistant (TETRUR spray application); conditions: 144 h, read-out: Efficacy % (mortality)
Experimental: Test; OP-Resistant (TETRUR Spray Application)
as §1
as §2, with “French beans (Phaseolus vulgaris) which are heavily infested” for “Chinese cabbage (Brassica pekinesis) leaf-disks infected”, “stages” for “instars”, “two spotted spidermite (Tetranychus urticae),” for “green peach aphid (Myzus persicae),”
After 6 days mortality in % is determined. 100% means that all spider mites have been killed and 0% means that none of the spider mites have been killed.

[4] = system: mustard beetle larvae (Phaedon cochleariae); experiment: Phaedon cochleariae test (PHAECO spray application); conditions: foliar, 168 h, spray on Chinese cabbage leaf disks, after 7 days, read-out: Efficacy % (mortality)
Experimental: Test; (PHAECO Spray Application)
• Solvent: 78.0 parts by weight of acetone • 1.5 parts by weight of dimethylformamide • Emulsifier: 0.5 parts by weight of alkylaryl polyglycolether
To produce a suitable preparation of active compound, 1 part by weight of active compound is mixed with the stated amount of solvent and emulsifier, and the concentrate is diluted with emulsifier-containing water to the desired concentration. Chinese cabbage (Brassica pekinesis) leaf-disks are sprayed with a preparation of the active ingredient of the desired concentration. Once dry, the leaf disks are infested with mustard beetle larvae (Phaedon cochleariae).
After 7 days mortality in % is determined. 100% means that all beetle larvae have been killed and 0% means that none of the beetle larvae have been killed.

Meloidogyne incognita = experiment: Meloidogyne test (MELGIN); conditions: 20 ppm, sand with salad seeds, after 14 days
Experimental: Meloidogyne Test (MELGIN)
• Solvent: 80.0 parts by weight of acetone
To produce a suitable preparation of active compound, 1 part by weight of active compound is mixed with the stated amount of solvent, and the concentrate is diluted with emulsifier-containing water to the desired concentration.
Vessels are filled with sand, a solution of the active ingredient, a suspension containing eggs and larvae of Meloidogyne incognita and salad seeds. The salade seeds germinate and the seedlings grow. Galls develop in the roots.
After 14 days the nematicidal activity is determined on the basis of the percentage of gall formation. 100% means that no galls were found; 0% means that the number of galls found on the roots of the treated plants was equal to that in untreated control plants.

SMILES | mortality at 500 g/ha [1] [%] | mortality at 500 g/ha [2] [%] | mortality at 500 g/ha [3] [%] | mortality at 500 g/ha ([4]; 500 g/ha) [%] | Efficacy % (nematicidal activity, gall formation) (Meloidogyne incognita) [%] | mortality at 500 g/ha ([3]; TETRUR, OP-resistant, 500 g/ha, spray on French beans, after 6 days) [%] | mortality at 100 g/ha ([4]; 100 g/ha) [%]
CCOC(=O)OC1=C(c2cc(-c3ccc(Cl)cc3)ccc2C)C(=O)C2C3CCC(O3)C12 (stereo not drawn) [Ex No. P 12] | 100 | 90 | 100 | 83 |  |  | 
Cc1ccc(-c2ccc(Cl)cc2)cc1C1=C(O)[C@H]2[C@@H](C1=O)[C@@H]1CC[C@H]2O1 [Ex No. T 1] | 100 | 90 |  |  | 100 | 100 | 83
